Results published in patent US8952024B2, “Herbicidal pyrimidone derivatives” (E I du Pont de Nemours and Company, priority 2009, dated 2015).
Where two headings read alike, the source gives them in different places.

Tests used:
Experiment in all cases: Test B pre-/postemergence plant response
Type in all cases: in vivo
[1] = tested on: Surinam grass (Brachiaria decumbens); conditions: for pest or weed control at 31 g/ha: 31 g ai/ha; for pest or weed control at 62 g/ha: 62 g ai/ha
Summary of the method: (§1)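 Steps: sow seed in loam–sand soil and spray preemergence, or grow plants in peat-based medium to 1–4 leaves (2–18 cm) and spray postemergence; formulation is non-phytotoxic solvent plus surfactant; hold in greenhouse 13–15 days; score visually vs controls, 0 = no effect, 100 = complete control.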

[2] = tested on: cocklebur (Xanthium strumarium); conditions: for pest or weed control at 16 g/ha: 16 g ai/ha; for pest or weed control at 16 g/ha / pest or weed control at 31 g/ha / pest or weed control at 62 g/ha: read-out: Plant response rating, Cocklebur; for pest or weed control at 31 g/ha: 31 g ai/ha; for pest or weed control at 62 g/ha: 62 g ai/ha
Summary of the method: as §1

[3] = tested on: kochia (Kochia scoparia); conditions: for pest or weed control at 16 g/ha: 16 g ai/ha; for pest or weed control at 16 g/ha / pest or weed control at 31 g/ha / pest or weed control at 62 g/ha: read-out: Plant response rating, Kochia; for pest or weed control at 31 g/ha: 31 g ai/ha; for pest or weed control at 62 g/ha: 62 g ai/ha
Summary of the method: as §1

[4] = tested on: lambsquarters (Chenopodium album); conditions: for pest or weed control at 16 g/ha: 16 g ai/ha; for pest or weed control at 16 g/ha / pest or weed control at 31 g/ha / pest or weed control at 62 g/ha: read-out: Plant response rating, Lambsquarters; for pest or weed control at 31 g/ha: 31 g ai/ha; for pest or weed control at 62 g/ha: 62 g ai/ha
Summary of the method: as §1

[5] = tested on: large crabgrass (Digitaria sanguinalis); conditions: for pest or weed control at 16 g/ha: 16 g ai/ha; for pest or weed control at 16 g/ha / pest or weed control at 31 g/ha / pest or weed control at 62 g/ha: read-out: Plant response rating, Crabgrass, Large; for pest or weed control at 31 g/ha: 31 g ai/ha; for pest or weed control at 62 g/ha: 62 g ai/ha
Summary of the method: as §1

[6] = tested on: nightshade (eastern black nightshade, Solanum ptycanthum); conditions: Preemergence
Summary of the method: as §1

[7] = tested on: sunflower (common oilseed sunflower, Helianthus annuus); conditions: Preemergence
Summary of the method: as §1

[8] = tested on: wild oat (Avena fatua); conditions: for pest or weed control at 16 g/ha: 16 g ai/ha; for pest or weed control at 62 g/ha: 62 g ai/ha
Summary of the method: as §1

[9] = tested on: woolly cupgrass (Eriochloa villosa); conditions: for pest or weed control at 16 g/ha: 16 g ai/ha; for pest or weed control at 16 g/ha / pest or weed control at 31 g/ha / pest or weed control at 62 g/ha: read-out: Plant response rating, Cupgrass, Woolly; for pest or weed control at 31 g/ha: 31 g ai/ha; for pest or weed control at 62 g/ha: 62 g ai/ha
Summary of the method: as §1

[10] = tested on: yellow nutsedge (Cyperus esculentus); conditions: for pest or weed control at 16 g/ha: 16 g ai/ha; for pest or weed control at 16 g/ha / pest or weed control at 31 g/ha / pest or weed control at 62 g/ha: read-out: Plant response rating, Nutsedge, Yellow; for pest or weed control at 31 g/ha: 31 g ai/ha; for pest or weed control at 62 g/ha: 62 g ai/ha
Summary of the method: as §1

[11] = Preemergence, 125 g ai/ha, 0 to 100 scale
[12] = Urochloa decumbens, pre-emergence, Preemergence, scale 0 to 100 (0 no effect, 100 complete control), read-out: Plant response rating, Surinam Grass
[13] = Xanthium strumarium, pre-emergence, Preemergence, scale 0 to 100 (0 no effect, 100 complete control)
[14] = Bassia scoparia, pre-emergence, Preemergence, scale 0 to 100 (0 no effect, 100 complete control)
[15] = Chenopodium album, pre-emergence, Preemergence, scale 0 to 100 (0 no effect, 100 complete control)
[16] = Digitaria sanguinalis, pre-emergence, Preemergence, scale 0 to 100 (0 no effect, 100 complete control)
[17] = 31 g ai/ha, scale 0 to 100 (0 no effect, 100 complete control)
[18] = 62 g ai/ha, scale 0 to 100, 0 no effect, 100 complete control
[19] = Avena fatua, pre-emergence, Preemergence, scale 0 to 100 (0 no effect, 100 complete control), read-out: Plant response rating, Oat, Wild
[20] = Eriochloa villosa, pre-emergence, Preemergence, scale 0 to 100 (0 no effect, 100 complete control)
[21] = Cyperus, pre-emergence, Preemergence, scale 0 to 100 (0 no effect, 100 complete control)

Compound: O=C1CCCC(O)=C1C(=O)c1cnc(-c2ccccc2)n(-c2ccccc2)c1=O [Compound 2, 5-[(2-hydroxy-6-oxo-1-cyclohexen-1-yl)carbonyl]-2,3-diphenyl-4(3H)-pyrimidinone]
- Surinam Grass plant response rating [1, 11]: 60
- pest or weed control at 16 g/ha ([1]; Urochloa decumbens, post-emergence, 16 g ai/ha, Postemergence, 0 to 100 scale, read-out: Plant response rating, Surinam Grass): 70%
- pest or weed control at 31 g/ha ([1]; Urochloa decumbens, post-emergence, Postemergence, scale 0 to 100 (0 no effect, 100 complete control), read-out: Plant response rating, Surinam Grass): 70%
- pest or weed control at 62 g/ha ([1]; Urochloa decumbens, post-emergence, Postemergence, scale 0 (no effect) to 100 (complete control), 13 to 15 days, read-out: Plant response rating, Surinam Grass): 75%
- pest or weed control at 125 g/ha ([1]; Urochloa decumbens, post-emergence, Postemergence, 125 g ai/ha, visual rating after 13 to 15 days, scale 0 (no effect) to 100 (complete control)): 85%
- pest or weed control at 31 g/ha [1, 12]: 15%
- pest or weed control at 62 g/ha [1, 12]: 20%
- Cocklebur plant response rating [2, 11]: 80
- pest or weed control at 16 g/ha ([2]; Xanthium strumarium, post-emergence, Postemergence, 0 to 100 scale): 75%
- pest or weed control at 31 g/ha ([2]; Xanthium strumarium, post-emergence, Postemergence, scale 0 to 100 (0 no effect, 100 complete control)): 80%
- pest or weed control at 62 g/ha ([2]; Xanthium strumarium, post-emergence, Postemergence, scale 0 (no effect) to 100 (complete control), 13 to 15 days): 90%
- pest or weed control at 125 g/ha ([2]; Xanthium strumarium, post-emergence, Postemergence, 125 g ai/ha, visual rating after 13 to 15 days, scale 0 (no effect) to 100 (complete control)): 95%
- pest or weed control at 16 g/ha [2, 13]: 0%
- pest or weed control at 31 g/ha [2, 13]: 0%
- pest or weed control at 62 g/ha ([2]; Xanthium strumarium, pre-emergence, Preemergence, scale 0 to 100, 0 no effect, 100 complete control): 65%
- pest or weed control at 16 g/ha ([3]; Bassia scoparia, post-emergence, Postemergence, 0 to 100 scale): 55%
- pest or weed control at 31 g/ha ([3]; Bassia scoparia, post-emergence, Postemergence, scale 0 to 100 (0 no effect, 100 complete control)): 60%
- pest or weed control at 62 g/ha ([3]; Bassia scoparia, post-emergence, Postemergence, scale 0 (no effect) to 100 (complete control), 13 to 15 days): 75%
- pest or weed control at 125 g/ha ([3]; Bassia scoparia, post-emergence, Postemergence, 125 g ai/ha, visual rating after 13 to 15 days, scale 0 (no effect) to 100 (complete control)): 80%
- pest or weed control at 16 g/ha [3, 14]: 0%
- pest or weed control at 31 g/ha [3, 14]: 100%
- pest or weed control at 62 g/ha [3, 14]: 100%
- Kochia plant response rating [3, 11]: 100
- pest or weed control at 16 g/ha ([4]; Chenopodium album, post-emergence, Postemergence, 0 to 100 scale): 80%
- pest or weed control at 31 g/ha ([4]; Chenopodium album, post-emergence, Postemergence, scale 0 to 100 (0 no effect, 100 complete control)): 90%
- pest or weed control at 62 g/ha ([4]; Chenopodium album, post-emergence, Postemergence, scale 0 (no effect) to 100 (complete control), 13 to 15 days): 90%
- pest or weed control at 125 g/ha ([4]; Chenopodium album, post-emergence, Postemergence, 125 g ai/ha, visual rating after 13 to 15 days, scale 0 (no effect) to 100 (complete control)): 95%
- pest or weed control at 16 g/ha [4, 15]: 100%
- pest or weed control at 31 g/ha [4, 15]: 100%
- pest or weed control at 62 g/ha ([4]; Chenopodium album, pre-emergence, Preemergence, scale 0 to 100, 0 no effect, 100 complete control): 100%
- Lambsquarters plant response rating [4, 11]: 100
- pest or weed control at 16 g/ha ([5]; Digitaria sanguinalis, post-emergence, Postemergence, 0 to 100 scale): 70%
- pest or weed control at 31 g/ha ([5]; Digitaria sanguinalis, post-emergence, Postemergence, scale 0 to 100 (0 no effect, 100 complete control)): 80%
- pest or weed control at 62 g/ha ([5]; Digitaria sanguinalis, post-emergence, Postemergence, scale 0 (no effect) to 100 (complete control), 13 to 15 days): 85%
- pest or weed control at 125 g/ha ([5]; Digitaria sanguinalis, post-emergence, Postemergence, 125 g ai/ha, visual rating after 13 to 15 days, scale 0 (no effect) to 100 (complete control)): 90%
- pest or weed control at 16 g/ha [5, 16]: 0%
- pest or weed control at 31 g/ha [5, 16]: 15%
- pest or weed control at 62 g/ha ([5]; Digitaria sanguinalis, pre-emergence, Preemergence, scale 0 to 100, 0 no effect, 100 complete control): 100%
- Crabgrass, Large plant response rating [5, 11]: 100
- Plant response rating, Nightshade ([6]; 16 g ai/ha, scale 0 to 100, 0 no effect, 100 complete control): 55
- Plant response rating, Nightshade [6, 17]: 98
- Plant response rating, Nightshade [6, 18]: 100
- Nightshade plant response rating ([6]; 125 g ai/ha, 0 to 100 scale): 100
- Plant response rating, Sunflower [7, 17]: 50
- Plant response rating, Sunflower [7, 18]: 70
- Sunflower plant response rating ([7]; 125 g ai/ha, 0 to 100 scale): 90
- pest or weed control at 16 g/ha ([8]; Avena fatua, post-emergence, Postemergence, 0 to 100 scale, read-out: Plant response rating, Oat, Wild): 5%
- pest or weed control at 31 g/ha ([8]; Avena fatua, post-emergence, Postemergence, 31 g ai/ha, scale 0 to 100 (0 no effect, 100 complete control), read-out: Plant response rating, Oat, Wild): 30%
- pest or weed control at 62 g/ha ([8]; Avena fatua, post-emergence, Postemergence, scale 0 (no effect) to 100 (complete control), 13 to 15 days, read-out: Plant response rating, Oat, Wild): 45%
- pest or weed control at 125 g/ha ([8]; Avena fatua, post-emergence, Postemergence, 125 g ai/ha, visual rating after 13 to 15 days, scale 0 (no effect) to 100 (complete control)): 55%
- pest or weed control at 16 g/ha [8, 19]: 0%
- pest or weed control at 62 g/ha [8, 19]: 5%
- Oat, Wild plant response rating [8, 11]: 50
- pest or weed control at 16 g/ha ([9]; Eriochloa villosa, post-emergence, Postemergence, 0 to 100 scale): 75%
- pest or weed control at 31 g/ha ([9]; Eriochloa villosa, post-emergence, Postemergence, scale 0 to 100 (0 no effect, 100 complete control)): 75%
- pest or weed control at 62 g/ha ([9]; Eriochloa villosa, post-emergence, Postemergence, scale 0 (no effect) to 100 (complete control), 13 to 15 days): 80%
- pest or weed control at 125 g/ha ([9]; Eriochloa villosa, post-emergence, Postemergence, 125 g ai/ha, visual rating after 13 to 15 days, scale 0 (no effect) to 100 (complete control)): 85%
- pest or weed control at 16 g/ha [9, 20]: 0%
- pest or weed control at 31 g/ha [9, 20]: 0%
- pest or weed control at 62 g/ha ([9]; Eriochloa villosa, pre-emergence, Preemergence, scale 0 to 100, 0 no effect, 100 complete control): 15%
- Cupgrass, Woolly plant response rating [9, 11]: 20
- pest or weed control at 16 g/ha ([10]; Cyperus, post-emergence, Postemergence, 0 to 100 scale): 40%
- pest or weed control at 31 g/ha ([10]; Cyperus, post-emergence, Postemergence, scale 0 to 100 (0 no effect, 100 complete control)): 45%
- pest or weed control at 62 g/ha ([10]; Cyperus, post-emergence, Postemergence, scale 0 (no effect) to 100 (complete control), 13 to 15 days): 60%
- pest or weed control at 125 g/ha ([10]; Cyperus, post-emergence, Postemergence, 125 g ai/ha, visual rating after 13 to 15 days, scale 0 (no effect) to 100 (complete control)): 75%
- pest or weed control at 16 g/ha [10, 21]: 0%
- pest or weed control at 31 g/ha [10, 21]: 15%
- pest or weed control at 62 g/ha [10, 21]: 40%
- Nutsedge, Yellow plant response rating [10, 11]: 70
